Measured values taken from patent US7901893B2, “NPC1L1 (NPC3) and methods of identifying ligands thereof” (Merck Sharp & Dohme Corp., priority 2004, dated 2011).

What was measured:
[1] = tested on: membrane preparations from cells expressing NPC1L1; assay: Preliminary binding studies with HEK-293 membrane preparations
Experimental: Transient expression of NPC1L1. Plasmid pCR3.1 expressing rat NPC1L1 (Genbank AY437867) or human NPC1L1 (Genbank AY437865) were prepared using standard molecular biology protocols. HEK-293 cells (ATCC) were seeded at 10×10^6 cells per T-225 flask (Corning) in DMEM containing 10% fetal calf serum, 4.5 g/L D-glucose and L-glutamine, 18 hours prior to transfection. They were transiently transfected with 25 μg of DNA using Fugene transfection reagent (Roche Biochemical) at a ratio of 6:1 Fugene:DNA. Following transfection, the cells were incubated at 37° C. and 5% CO2 for 48 hours, and then harvested using PBS based cell dissociation buffer (Gibco), pelleted at 500×g, snap frozen on dry ice, and stored at −80° C.
Membrane preparation from HEK-293 cells. Membranes were prepared by resuspending the frozen cell pellets in ten volumes of 20 mM HEPES/Tris buffer at pH 7.40 containing 8% sucrose, and sonicating the suspensions with a probe sonicator on ice until most of the cells were lysed. […]
Cell lysates from HEK-293 cells expressing NPC1L1 (Lanes 1 and 3 of Panel 1 FIG. 13) and wild-type cells (Lanes 2 and 4 of Panel 1 FIG. 13) were analyzed by gel electrophoresis and Western blot with an anti-NPC1L1 antibody A1801. […]

[2] = tested on: intestinal cholesterol absorption; assay: Cholesterol absorption in mice, dual fecal isotope ratio method; assay type: in vivo, mouse
Experimental: Cholesterol absorption in the mice was determined by the dual fecal isotope ratio method as described by Altmann et al. (Biochim. Biophys. Acta. 1580(1): 77-93 (2002)). Mice (n—4-6/group) were fed a standard rodent chow diet and in some groups treated daily with a maximally effective dose of ezetimibe (10 mg/kg). Mice were gavaged with ^14C-cholesterol (1 μCi, 0.1 mg unlabeled cholesterol) and ^3H-sitostanol (2 μCi) in 0.1 ml corn oil. Feces were collected for 2 days and fecal ^14C-cholesterol and ^3H-sitostanol levels were determined by combustion in a Packard Oxidizer. The fraction of cholesterol absorbed, as evaluated by the fecal dual isotope technique, was similar in wild type (+/+) and heterozygous mice (+/−) fed a chow diet (heterozygous mice absorbed 46±5% and age matched wild type mice absorbed 51±3% of the dose of ^14C-cholesterol). The NPC1L1 knockout mice (−/−) absorbed 15.6±0.4% of the ^14C-cholesterol, which was similar to the wild type mice treated with a maximally effective dose of ezetimibe (16.1±0.3%), and reduced by 69% compared to wild type mice (p<0.001). In NPC1L1 knockout treated with ezetimibe at 10 mg/kg/day, cholesterol absorption was similar to that seen in the untreated knockout mice (16.2±0.6% compared to 15.6%±0.4%, respectively). […]

Structure (SMILES)	binding to membrane preparations from cells expressing NPC1L1 [1]	binding to membranes from mock transfected cells [1]	fraction of ^14C-cholesterol absorbed ([2]; NPC1L1 knockout mice, ezetimibe 10 mg/kg/day) [%]	fraction of ^14C-cholesterol absorbed ([2]; wild type mice, ezetimibe 10 mg/kg daily) [%]
O=C(O)[C@H]1O[C@@H](Oc2ccc([C@@H]3[C@@H](CC[C@H](O)c4ccc(F)cc4)C(=O)N3c3ccc(F)cc3)cc2)[C@H](O)[C@@H](O)[C@@H]1O [Compound 1, Ezetimibe glucuronide]	specific binding	no specific binding	–	–
O=C1[C@H](CC[C@H](O)c2ccc(F)cc2)[C@@H](c2ccc(O)cc2)N1c1ccc(F)cc1 [ezetimibe]	–	–	16.2±0.6	16.1±0.3
